Assay results as given in paper PMC8341874 (RSC Chemical Biology, 2021).

Tested on: 20S core particle (20S CP) of the proteasome
Assay: FRET peptide reporter hydrolysis, single concentration
Format: biochemical, Homo sapiens
Conditions: stimulator (activation); site unknown

In the case of C[C@H]1[C@H](C)CC[C@]2(C(=O)O)CC[C@]3(C)C(=CC[C@@H]4[C@@]5(C)CC[C@H](O)C(C)(C)[C@@H]5CC[C@]43C)[C@H]12 [UA, ursolic acid], the “% stimulation over control at 25 μM” value is reported as 215%.
